# Tests used:
# healthy male subjects = assay: Pharmacokinetic interaction study in healthy males: safety and tolerability; assay type: in vivo, human; details: healthy males
# Description: Safety and tolerability was evaluated throughout the study. The timing of discharge was determined by the Investigator or designee based on safety and tolerability assessment. On dosing days, subjects remained in the research unit for a minimum of 1 h after dosing prior to discharge. On Day 4, on the first day of 10-nitro-9(E)-octadec-9-enoic acid dosing, subjects remained in the unit for 4 to 6 h after dosing prior to discharge to assess safety and tolerability.
# Safety and PK assessments were evaluated throughout the study. During the in-house portion of the study, urine was collected over the 24-h period on Day 2 and Day 12.
# Safety was evaluated by physical examinations; adverse events (AEs); vital signs (blood pressure, heart rate, respiratory rate); clinical laboratory values (hematology, biochemistry, and urinalysis), specifically, serum Mg and CPK and electrocardiograms (ECGs).
# Triplicate ECGs were obtained just prior to the start of dosing on Day 1 and single ECGs were obtained at all other time points. The average of the 3 ECG interval measurements at the pre-dose time point was considered as baseline. All 12-Lead ECGs were obtained after the subject has rested in a fully supine position for at least 10 minutes. There were no clinically significant abnormalities reported on any electrocardiogram (ECG) parameter. There were no QT/QTcF interval prolongations observed during the study.
# obese male subjects = assay: Multiple ascending dose study in obese males: serum biomarkers (leptin, MCP-1, IL-6, triglycerides, cholesterol); assay type: in vivo, human
# Source text: Biomarker characterization included the following laboratory parameters: serum leptin, FBG, total cholesterol, HDL and LDL, triglycerides, HR, PR, QRS interval and T-wave morphology measured on ECGs extracted from cardiac Holter monitoring, measurements of serum RBP4, CRP, PAI-1, measurements of serum cytokines: IL-6, TNFα, MCP-1, measurements of the following biomarkers in whole blood by quantitative reverse transcriptase polymerase chain reaction (qRT-PCR) including: HO-1, NQ01, GCLM, HSP70 (HSP1A HSP1B, HSPA6), HSP22 (HSPB8) and HPS40 (DNAJA4), urine RBP4, MCP-1 and KIM-1, urinary exosomes by qRT-PCR including: HO-1, NQ01, GCLM, HSP70 (HSP1A HSP1B, HSPA6), HSP22 (HSPB8) and HPS40 (DNAJA4), gene and protein expression analyses by DNAseq, RNAseq, and western blots in PBMCs and ratio of EETs to DHETs in serum and urine.
# This was a single-center, randomized, double-blind, placebo-controlled study of sequential multiple ascending doses of oral CXA-10 in obese male subjects. Eligible subjects included obese males age 19 to 57 years and BMI 27.0 to 39.5 kg/m^2. CXA-10 and placebo were provided as solutions in hard shell capsules. Three (3) cohorts of subjects were dosed once daily with CXA-10 for 14 days. The doses administered in this study were 25, 150 and 450 mg. Subjects enrolled in the highest dose level (450 mg) were administered 600 mg on day 1 then 450 mg for 13 days. This cohort (cohort 3) was given the option to receive an additional 450 mg dose on day 15 with a high fat (50%) breakfast.
# Full PK profiles were obtained on Days 1 and 14. For subjects in cohort 3 who participate in the additional procedures on Day 15, full PK profiles were obtained on Days 1, 14, and 15. An abbreviated PK profile could also be obtained for the highest dose cohort only on one additional day. The actual day of PK sampling coincided with the additional day of Holter monitoring for the highest dose cohort. Subjects returned on Day 21 and Day 28 for PK, safety, and biomarker assessments.
# [1] = test system: deoxycorticosterone acetate (DOCA)/salt-induced model of FSGS; assay: DOCA salt study: histological assessment of kidney; assay type: in vivo, mice (129/sv strain); details: DOCA/salt mice, 4 weeks
# Description: Induction of model: Male mice (129/sv strain) were purchased from Taconic Labs. The animals were uninephrectomized (Unx) at 6 weeks of age by the vendor and shipped one week after surgery. At 2 weeks post Unx, a DOCA or placebo pellet (21-day release pellets, 50 mg/pellet, Innovative Research of America, Sarasota, Fla.) was implanted s.c. All mice were then placed on a semisynthetic diet which contained a moderate fat content and a low phytoestrogen/anti-oxidant level, which approximates a normal human diet (4). A second DOCA or placebo pellet was implanted three weeks later.
# Treatment: Mice were treated with placebo, 10-nitro-9(E)-octadec-9-enoic acid at a dose of 2.5 and 12.5 mg/kg, or enalapril (standard of care) for 4 weeks by oral gavage starting 2 weeks after the first DOCA implantation. One percent NaCl in tap water was given to each group except the sham control group. Body weight was measured weekly, and doses were readjusted based on the current body weight. Urine and blood samples were collected prior to treatment and at week 2 and 4 of treatment. Mice were terminated at week 4. Data is presented as the mean+SEM for the number of animals listed in each group.
# Histological Assessment: Formalin fixed, paraffin embedded kidneys were sectioned at 3 microns and stained with hematoxylin and eosin (H&E), periodic acid-Schiff (PAS) and Masson's Trichrome for histological analysis. Slides were blindly evaluated by an experienced pathology investigator. Glomerular and tubular pathology, interstitial inflammation and interstitial fibrosis were semi-quantitatively scored on a scale of 0-4 as follows: 0=normal; 1=mild; 2=moderate; 3=marked; 4=severe.
# Glomerular hypertrophy was evaluated by measuring glomerular area and expressed as a mean value of 50 glomeruli per kidney. Glomerular hypertrophy is an important marker for diabetic and hypertensive-mediated chronic kidney disease. […] This finding is consistent with unchanged gene expression profile for podocyte markers (Table 2), and seems reasonable given that the disease was relatively modest.
# [2] = test system: adriamycin-induced nephropathy model; details: continually infused at disease onset; cited from earlier work
structure (smiles),measurement,setting,value
"CCCCCCCC/C(=C\CCCCCCCC(=O)O)[N+](=O)[O-] [CXA-10, 10-nitro-9(E)-octadec-9-enoic acid]",GI AEs related to 10-nitro-9(E)-octadec-9-enoic acid,healthy male subjects; 150 mg daily with food,not observed
same,serum creatinine levels,healthy male subjects; 150 mg daily,no changes
same,24-hour urine creatinine excretion measurements,"healthy male subjects; 150 mg daily, Day 2 versus Day 12",nor any relevant changes
same,"Cholesterol concentrations, change from baseline",obese male subjects; 150 mg,trend to decrease from baseline
same,MCP-1 mean change from baseline compared to placebo,obese male subjects; 150 mg,significantly different compared to placebo
same,Triglycerides LS Mean Difference (CI),"obese male subjects; 150 mg versus placebo, Day 8",-45.4 mg/dL
same,MCP-1 LS Mean Difference (CI),"obese male subjects; 150 mg versus placebo, Day 14 (0-10 hr)","−228.5 (−387.2, −69.77) pg/mL"
same,Triglycerides LS Mean Difference (CI),"obese male subjects; 150 mg versus placebo, Day 15",-59.6 mg/dL
same,decrease of leptin concentrations from baseline,"obese male subjects; 150 mg, day 14, placebo increased 35%",21.5%
same,"IL-6 concentrations, change from baseline","obese male subjects; 150 mg, days 7 and 14",trend to decrease from baseline
same,Leptin % change from baseline,"obese male subjects; Cohort 2 150 mg (n = 10), Day 14",−21.5%
same,Leptin LS Mean Difference (CI) versus placebo,"obese male subjects; Cohort 2 150 mg versus placebo, Day 14","−56.5 (−140.5, 27.5) pg/mL"
same,glomerulosclerosis: average scores and percent of glomerular damage (sclerosis),[1]; both doses (2.5 and 12.5 mg/kg p.o. QD),significantly reduced
same,"glomerular hypertrophy (glomerular area, mean of 50 glomeruli per kidney)",[1]; high dose 12.5 mg/kg p.o. QD,did not have an effect
same,tubulointerstitial lesions,[1]; high dose 12.5 mg/kg p.o. QD,only slightly
same,"glomerular hypertrophy (glomerular area, mean of 50 glomeruli per kidney)",[1]; low dose 2.5 mg/kg p.o. QD,reduced
same,tubulointerstitial lesions,[1]; low dose 2.5 mg/kg p.o. QD,improved
same,podocyte number,[2],increase in podocyte number
